Measurements from US7851474B2, “Dipiperazinyl ketones and related analogues” (Neurogen Corporation, priority 2005, dated 2010).

The compounds below were run against T1, chimeric human H3 receptor (Homo sapiens, UniProt Q9Y5N1, E19D) (assay: Chimeric human H3 receptor GTP binding assay (agonist-stimulated GTP-gamma35S binding, Example 7)). Conditions: Table II; assay of Example 7; "*" in Ki; read-out: Ki.
T1 construct: made in house; host or cells: Sf9 insect cells (baculovirus infection); P2 membrane preparation
T1 sequence (Q9Y5N1 with tags, fused parts or gaps E19D): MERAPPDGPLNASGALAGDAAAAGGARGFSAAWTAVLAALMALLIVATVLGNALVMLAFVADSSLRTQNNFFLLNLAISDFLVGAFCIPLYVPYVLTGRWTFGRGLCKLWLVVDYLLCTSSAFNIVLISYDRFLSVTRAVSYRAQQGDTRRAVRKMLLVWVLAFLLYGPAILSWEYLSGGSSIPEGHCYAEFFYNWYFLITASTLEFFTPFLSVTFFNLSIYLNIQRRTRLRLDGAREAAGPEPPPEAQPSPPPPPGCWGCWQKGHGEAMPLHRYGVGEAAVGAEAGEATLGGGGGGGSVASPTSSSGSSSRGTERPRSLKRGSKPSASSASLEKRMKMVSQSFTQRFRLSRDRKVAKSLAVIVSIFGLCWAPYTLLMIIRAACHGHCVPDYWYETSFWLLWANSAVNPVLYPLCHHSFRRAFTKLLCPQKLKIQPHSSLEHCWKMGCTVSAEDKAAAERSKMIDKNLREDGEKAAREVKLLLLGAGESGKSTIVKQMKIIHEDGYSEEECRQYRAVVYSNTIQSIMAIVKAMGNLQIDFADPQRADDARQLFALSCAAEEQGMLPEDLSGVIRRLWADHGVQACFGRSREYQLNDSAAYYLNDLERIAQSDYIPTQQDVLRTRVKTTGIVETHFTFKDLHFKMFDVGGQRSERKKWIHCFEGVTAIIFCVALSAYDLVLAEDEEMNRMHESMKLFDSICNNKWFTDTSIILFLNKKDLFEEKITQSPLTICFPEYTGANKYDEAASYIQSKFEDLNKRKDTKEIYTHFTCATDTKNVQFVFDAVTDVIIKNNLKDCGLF
Format: biochemical
Summary of the method: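 Sf9 membranes co-expressing the chimeric receptor and heterotrimeric G-protein subunits, 35 μg protein per tube, in pH 7.4 Tris buffer with 10 μM GDP. Test compounds at 10^−10 to 10^−6 M with 1 μM histamine, 60 min at room temperature. Filter-bound GTP-gamma^35S read by scintillation; IC50 from non-linear regression of dose-response curves.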

Ki, < 1000 nM:
O=C(CN1CCC2(CC1)CC(=O)N(Cc1ccccc1)C2=O)N1CCN(C2CCC2)CC1 [Compound 982, 2-benzyl-8-[2-(4-cyclobutylpiperazin-1-yl)-2-oxoethyl]-2,8-diazaspiro[4.5]decane-1,3-dione]
O=C(CN1CCN(c2cnc(Br)cn2)CC1)N1CCN(C2CCC2)CC1 [Compound 983, 2-bromo-5-{4-[2-(4-cyclobutylpiperazin-1-yl)-2-oxoethyl]piperazin-1-yl}pyrazine]
O=C(CN1CCC2(CC1)c1ccccc1C(=O)N2C1CCC1)N1CCN(C2CCC2)CC1 [Compound 984, 2-cyclobutyl-1′-[2-(4-cyclobutylpiperazin-1-yl)-2-oxoethyl]spiro[isoindole-1,4′-piperidin]-3(2H)-one]
O=C(CN1CCN(c2ccc(-c3ccc4c(c3)OCO4)nn2)CC1)N1CCN(C2CCC2)CC1 [Compound 986, 3-(1,3-benzodioxol-5-yl)-6-{4-[2-(4-cyclobutylpiperazin-1-yl)-2-oxoethyl]piperazin-1-yl}pyridazine]
O=C(CN1CCN(c2ccc(-c3ccc(F)c(Cl)c3)nn2)CC1)N1CCN(C2CCC2)CC1 [Compound 987, 3-(3-chloro-4-fluorophenyl)-6-{4-[2-(4-cyclobutylpiperazin-1-yl)-2-oxoethyl]piperazin-1-yl}pyridazine]
O=C(CN1CCN(c2ccc(-c3cccc(Cl)c3)nn2)CC1)N1CCN(C2CCC2)CC1 [Compound 988, 3-(3-chlorophenyl)-6-{4-[2-(4-cyclobutylpiperazin-1-yl)-2-oxoethyl]piperazin-1-yl}pyridazine]
CCCCc1ccc(-c2ccc(N3CCN(CC(=O)N4CCN(C5CCC5)CC4)CC3)nn2)cc1 [Compound 989, 3-(4-butylphenyl)-6-{4-[2-(4-cyclobutylpiperazin-1-yl)-2-oxoethyl]piperazin-1-yl}pyridazine]
O=C(CN1CCN(c2ccc(-c3ccc(Cl)c(F)c3)nn2)CC1)N1CCN(C2CCC2)CC1 [Compound 990, 3-(4-chloro-3-fluorophenyl)-6-{4-(2-(4-cyclobutylpiperazin-1-yl)-2-oxoethyl]piperazin-1-yl}pyridazine]
O=C(CN1CCN(c2ccc(-c3ccc(Cl)cc3)nn2)CC1)N1CCN(C2CCC2)CC1 [Compound 991, 3-(4-chlorophenyl)-6-{4-[2-(4-cyclobutylpiperazin-1-yl)-2-oxoethyl]piperazin-1-yl}pyridazine]
CC(C)(C)c1ccc(-c2ccc(N3CCN(CC(=O)N4CCN(C5CCC5)CC4)CC3)nn2)cc1 [Compound 992, 3-(4-tert-butylphenyl)-6-{4-[2-(4-cyclobutylpiperazin-1-yl)-2-oxoethyl]piperazin-1-yl}pyridazine]
CN(C)c1cccc(-c2cnc(N3CCN(CC(=O)N4CCN(C5CCC5)CC4)CC3)cn2)c1 [Compound 993, 3-(5-{4-[2-(4-cyclobutylpiperazin-1-yl)-2-oxoethyl]piperazin-1-yl}pyrazin-2-yl)-N,N-dimethylaniline]
N#Cc1cccc(-c2cnc(N3CCN(CC(=O)N4CCN(C5CCC5)CC4)CC3)cn2)c1 [Compound 994, 3-(5-{4-[2-(4-cyclobutylpiperazin-1-yl)-2-oxoethyl]piperazin-1-yl}pyrazin-2-yl)benzonitrile]
COc1ccc(Cl)cc1-c1ccc(N2CCN(CC(=O)N3CCN(C4CCC4)CC3)CC2)nn1 [Compound 995, 3-(5-chloro-2-methoxyphenyl)-6-{4-[2-(4-cyclobutylpiperazin-1-yl)-2-oxoethyl]piperazin-1-yl}pyridazine]
CN(C)c1cccc(-c2ccc(N3CCN(CC(=O)N4CCN(C5CCC5)CC4)CC3)nn2)c1 [Compound 996, 3-(6-{4-[2-(4-cyclobutylpiperazin-1-yl)-2-oxoethyl]piperazin-1-yl}pyridazin-3-yl)-N,N-dimethylaniline]
